Assay results: patent US7935706B2, “Nitrogen-containing heterocycle derivatives substituted with cyclic group” (Shionogi & Co., Ltd., priority 2006, dated 2011)
Where two headings read alike, the source gives them in different places.

Legend:
[1] = target: T1, NMDA receptor (NR1 subunit and NR2B subunit) (Mus musculus, UniProt P35438+Q01097); assay: Measurement of expression of NMDA receptor and Ca ion influx amount (glutamic acid/glycine-induced, HEK293 cell co-expressing NR1 and NR2B subunits, Fluo-3/AM); type: cell-based
T1 construct: expressed in transfected cells; host or cells: HEK293 cells, transient transfection with pcDNA3.1 plasmids
T1 sequence (Q01097 27-1482, other chains not shown): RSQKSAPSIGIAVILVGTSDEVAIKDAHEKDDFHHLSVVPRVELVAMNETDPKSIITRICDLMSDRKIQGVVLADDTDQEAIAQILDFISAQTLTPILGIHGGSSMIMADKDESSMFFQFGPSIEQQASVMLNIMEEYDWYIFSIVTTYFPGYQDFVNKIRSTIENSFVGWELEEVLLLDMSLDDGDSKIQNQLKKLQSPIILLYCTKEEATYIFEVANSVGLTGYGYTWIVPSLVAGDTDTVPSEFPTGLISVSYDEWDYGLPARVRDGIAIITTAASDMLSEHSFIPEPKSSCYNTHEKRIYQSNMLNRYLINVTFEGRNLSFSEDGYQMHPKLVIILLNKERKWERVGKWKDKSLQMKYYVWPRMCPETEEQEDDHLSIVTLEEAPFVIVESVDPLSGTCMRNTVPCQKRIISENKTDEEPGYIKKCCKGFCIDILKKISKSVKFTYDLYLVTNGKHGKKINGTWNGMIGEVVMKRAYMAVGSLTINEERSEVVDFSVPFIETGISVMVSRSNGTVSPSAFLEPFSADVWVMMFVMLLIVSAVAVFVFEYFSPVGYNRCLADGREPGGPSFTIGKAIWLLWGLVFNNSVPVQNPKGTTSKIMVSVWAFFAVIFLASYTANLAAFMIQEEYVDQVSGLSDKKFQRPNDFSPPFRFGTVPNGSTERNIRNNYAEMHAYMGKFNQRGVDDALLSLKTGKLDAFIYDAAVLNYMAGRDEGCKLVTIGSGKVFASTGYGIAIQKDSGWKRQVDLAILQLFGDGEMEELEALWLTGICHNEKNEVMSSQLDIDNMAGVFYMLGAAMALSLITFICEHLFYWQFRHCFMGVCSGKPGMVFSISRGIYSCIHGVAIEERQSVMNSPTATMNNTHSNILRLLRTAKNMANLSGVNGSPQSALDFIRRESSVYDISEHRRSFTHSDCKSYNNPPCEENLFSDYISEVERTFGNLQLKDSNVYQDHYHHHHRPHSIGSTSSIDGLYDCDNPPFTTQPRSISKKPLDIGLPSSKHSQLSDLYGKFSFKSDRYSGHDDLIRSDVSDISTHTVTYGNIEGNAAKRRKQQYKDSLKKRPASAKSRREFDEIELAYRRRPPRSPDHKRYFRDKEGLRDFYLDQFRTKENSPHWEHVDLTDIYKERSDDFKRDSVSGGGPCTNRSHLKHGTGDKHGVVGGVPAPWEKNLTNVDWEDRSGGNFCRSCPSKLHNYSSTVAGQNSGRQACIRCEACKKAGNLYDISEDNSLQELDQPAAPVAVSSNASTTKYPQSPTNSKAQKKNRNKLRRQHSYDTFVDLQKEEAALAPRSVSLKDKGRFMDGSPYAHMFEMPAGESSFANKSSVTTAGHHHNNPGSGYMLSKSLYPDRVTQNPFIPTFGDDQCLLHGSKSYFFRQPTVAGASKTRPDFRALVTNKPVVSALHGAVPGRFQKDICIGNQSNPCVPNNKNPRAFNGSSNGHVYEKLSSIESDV
Experimental: Measurement of Expression of NMDA Receptor and Ca Ion Influx Amount
A complementary DNA (cDNA) of a mouse NMDA receptor subunit was transiently introduced into a HEK293 cell and, after 1 day from introduction, change in a glutamic acid/glycine-induced intracelluar Ca amount was measured using a Ca ion reactive fluorescent coloring matter.
The HEK293 cell was cultured, and passaged using a modified Dulbecco's Eagle medium (DMEM, low glucose).
The HEK293 cell (20,000/well) was seeded on a 96-well plate, a NR1 subunit and a NR2B subunit of the NMDA receptor incorporated into the pcDNA3.1 plasmid were transiently introduced into a cell, and the subunits were co-expressed. An introduction amount of a DNA was 0.025 μg in the case of the NR1 subunit, and 0.075 μg in the case of NR2B subunit per well. For the cell after introduction, cell death was inhibited using 50 μM of the NMDA receptor antagonist MK-801.
For adjusting a test compound and washing a cell, Krebs/Ringer/Hepes buffer (KRH, Ca: 5 mM) was used.
After 1 day from introduction, the NMDA receptor antagonist MK-801 was washed out using the KRH buffer, and a Ca ion indication fluorescent coloring matter Fluo-3/AM was made to be taken into the cell. Ca ion influx was induced with 20 μM glutamic acid/2 μM glycine. Change in a fluorescent amount due to Ca ion influx into the cell was measured at excitation of 480 nm using a fluorescent imaging system FDSS 3000.
From a measured value of the test compound, a Ca ion influx inhibition rate (%) was obtained by the following equation, and a dose at which influx is inhibited 50% (IC50) was calculated.
Ca ion influx inhibition rate(%)=100−[(fluorescent amount in the presence of test compound−background fluorescent amount)/(total fluorescent amount−background fluorescent)]×100

NR1/NR2B receptor = target: T2, NR1/NR2B receptor (Rattus norvegicus, UniProt P35439+Q00960); assay: Test of binding with NMDA receptor (NR1/NR2B receptor): competition with [3H]-Ifenprodil on rat cerebral cortex membrane specimen
T2 construct: from tissue; host or cells: rat cerebral cortex membranes (male Slc: Wistar rat)
T2 sequence (Q00960 27-1482, other chains not shown): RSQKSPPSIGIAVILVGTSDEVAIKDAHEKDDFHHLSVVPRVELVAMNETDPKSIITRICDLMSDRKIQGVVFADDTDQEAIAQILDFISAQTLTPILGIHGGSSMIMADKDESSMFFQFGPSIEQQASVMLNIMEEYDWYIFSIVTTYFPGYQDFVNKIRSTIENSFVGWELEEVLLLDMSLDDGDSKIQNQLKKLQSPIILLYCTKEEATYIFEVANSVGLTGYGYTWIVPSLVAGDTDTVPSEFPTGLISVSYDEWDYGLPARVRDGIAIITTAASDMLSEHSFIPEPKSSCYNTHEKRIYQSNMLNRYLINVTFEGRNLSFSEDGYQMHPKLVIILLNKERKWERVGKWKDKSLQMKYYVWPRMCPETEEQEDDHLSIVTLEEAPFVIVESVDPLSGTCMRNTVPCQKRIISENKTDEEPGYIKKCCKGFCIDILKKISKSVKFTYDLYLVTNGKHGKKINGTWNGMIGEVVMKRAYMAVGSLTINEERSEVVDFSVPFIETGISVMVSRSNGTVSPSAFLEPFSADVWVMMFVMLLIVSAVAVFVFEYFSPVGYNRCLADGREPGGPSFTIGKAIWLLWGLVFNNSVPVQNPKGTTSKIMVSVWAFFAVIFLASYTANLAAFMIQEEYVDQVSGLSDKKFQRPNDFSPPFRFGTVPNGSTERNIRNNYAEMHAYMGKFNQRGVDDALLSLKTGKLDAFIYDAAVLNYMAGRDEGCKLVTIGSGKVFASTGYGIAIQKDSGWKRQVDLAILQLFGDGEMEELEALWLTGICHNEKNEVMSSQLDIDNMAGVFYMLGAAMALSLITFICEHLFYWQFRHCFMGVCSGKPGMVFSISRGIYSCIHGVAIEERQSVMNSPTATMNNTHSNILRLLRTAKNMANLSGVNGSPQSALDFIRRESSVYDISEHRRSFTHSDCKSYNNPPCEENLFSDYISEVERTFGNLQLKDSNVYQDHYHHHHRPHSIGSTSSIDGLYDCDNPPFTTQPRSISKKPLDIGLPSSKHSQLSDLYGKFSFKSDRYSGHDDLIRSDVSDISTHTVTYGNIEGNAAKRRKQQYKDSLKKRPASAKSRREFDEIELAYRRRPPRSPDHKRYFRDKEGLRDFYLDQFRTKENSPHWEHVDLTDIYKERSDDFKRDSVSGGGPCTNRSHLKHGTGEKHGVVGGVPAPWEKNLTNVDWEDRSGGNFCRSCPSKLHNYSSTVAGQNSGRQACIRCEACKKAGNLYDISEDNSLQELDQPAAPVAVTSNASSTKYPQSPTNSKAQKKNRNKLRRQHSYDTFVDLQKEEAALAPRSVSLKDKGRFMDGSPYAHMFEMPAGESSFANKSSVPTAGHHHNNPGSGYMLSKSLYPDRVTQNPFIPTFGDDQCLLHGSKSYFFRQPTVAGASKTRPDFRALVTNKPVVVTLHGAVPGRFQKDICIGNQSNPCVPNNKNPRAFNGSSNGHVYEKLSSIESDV
Experimental: Test of Binding with NMDR Receptor (NR1/NR2B Receptor)
Using Ifenprodil which is an antagonist specific for a NR1/NR2B subtype receptor as a ligand, an experiment of competition between a receptor and a test compound was performed.
Using a male Slc: Wistar rat as an animal, a brain was isolated after decapitation, and a cerebral cortex was fractionated. The cerebral cortex was homogenized with a 20-fold amount of an ice-cooled 50 mM Tris/HCl buffer (pH 7.4), and the homogenate was centrifuged at 4° C. and 27,500×g for 10 minutes. The resulting precipitate was suspended in the same buffer, and this was again centrifuged. This operation was repeated for three times, the resulting precipitate was suspended in a buffer, and this was stored at −80° C. Immediately before an experiment, the frozen suspension was thawed at room temperature, this was centrifuged at 4° C. and 27,500×g for 10 minutes, and the resulting precipitate was suspended in a buffer. Further, the suspension was diluted 10-fold with a buffer, and this was used as a membrane specimen in an experiment. In a binding experiment, to 470 μl of the membrane specimen were added […] of each of test compounds having different concentrations, 10 μl of a labeled ligand [^3H]-Ifenprodil and 10 μl GBR-12909, followed by incubation at an ice temperature for 120 minutes. A concentration of [^3H]-Ifenprodil of the labeled ligand was finally 5 nM, and a concentration of GBR-12909 was finally 3 μM. For measuring a total binding amount, DMSO as a solvent was used and, for measuring a non-specific binding amount, 100 μM Ifenprodil was used. GBR-12909 was added in order to block binding of [^3H]-Ifenprodil to non-polyamine-sensitive site. After incubation, a bound formand a free foramwere separated using Whatman GF/C filter (manufactured by Whatman), and the filter was washed with 2.5 ml ice-cooled buffer four times. The filter was immersed in liquid scintillation (Cryasol I, manufactured by Nacalai tesque), and radioactivity (dpm) was measured with a liquid scintillation counter. From a measured value, a binding inhibition rate (%) was obtained by the following equation, and a dose at which binding is inhibited 50% (IC50) was calculated. A formula of GBR-12909 (vanoxerine) is shown below.
Binding inhibition rate(%)=100−[(binding amount in the presence of test compound−non-specific binding amount)/(total binding amount−non-specific binding amount)]×100

[2] = Ca ion influx induced with 20 μM glutamic acid/2 μM glycine, HEK293 cell with mouse NR1/NR2B, read-out: Ca2+ IC50
[3] = same Ca ion influx test, read-out: IC50 (Ca ion influx inhibition)
[4] = [3H]-Ifenprodil 5 nM, GBR-12909 3 μM, rat cerebral cortex membranes, ice temperature 120 minutes, read-out: NR2B (IC50 μM)
[5] = same binding test, read-out: IC50 (binding with NR1/NR2B receptor)

| SMILES | melting point | IC50 [1, 2] | IC50 [1, 3] | IC50 (NR1/NR2B receptor; [4]) | IC50 (NR1/NR2B receptor; [5]) |
| --- | --- | --- | --- | --- | --- |
| O=C(NCC1CCN(c2ccc(C(F)(F)F)cc2)CC1)c1ccc(=O)[nH]c1 [Compound I-3] | 283 to 284 °C (dec.) |  |  |  |  |
| O=C(NC1CCN(c2ccc(Cl)cc2)CC1)c1ccc(=O)[nH]c1 [Compound I-4] | 274 to 275 °C (dec.) |  |  |  |  |
| O=C(NCCC1CCN(c2ccc(C(F)(F)F)cn2)CC1)c1ccc(=O)[nH]c1 [Compound I-6] | 232 to 234 °C | 0.039 µM |  |  |  |
| O=C(CC1=CCN(c2ccc(C(F)(F)F)cn2)CC1)Nc1ccc2[nH]c(=O)oc2c1 [Compound I-63] | 236 to 237 °C | 0.079 µM |  |  |  |
| O=C(CC1(O)CCN(c2ccc(C(F)(F)F)cc2)CC1)Nc1ccc2c(c1)CC(=O)N2 [Compound I-65] | 260 to 261 °C |  |  |  |  |
| O=C(Nc1ccc2[nH]c(=O)oc2c1)C(=O)N1CCN(c2ccc(C(F)(F)F)c(F)c2)CC1 [Compound I-98] |  |  | ≤ 0.1 µM | 0.015 µM |  |
| O=C(Nc1ccc2[nH]c(=O)oc2c1)C(=O)N1CCN(c2ccc(F)c(F)c2)CC1 [Compound I-99] |  |  | ≤ 0.1 µM |  | ≤ 0.1 µM |
| O=C(Nc1cnc2[nH]c(=O)[nH]c2c1)C(=O)N1CCN(c2ccc(C(F)(F)F)cc2)CC1 [Compound I-101] |  | 0.001 µM |  | 0.011 µM |  |
| O=C(Nc1ccc2[nH]c(=O)oc2c1)C(=O)N1CCN(c2ccc(C(F)(F)F)cn2)CC1 [Compound I-103] |  |  | ≤ 0.1 µM | 0.018 µM |  |
| O=C(Nc1ccc2[nH]c(=O)oc2c1)C(=O)N1CCN(c2ccc(Cl)c(Cl)c2)CC1 [Compound I-104] |  | 0.001 µM |  | 0.016 µM |  |
| O=C(Nc1cnc2[nH]c(=O)oc2c1)C(=O)N1CCN(c2ccc(C(F)(F)F)c(F)c2)CC1 [Compound I-107] |  |  | ≤ 0.1 µM |  | ≤ 0.1 µM |
| O=C(Nc1cnc2[nH]c(=O)oc2c1)C(=O)N1CCN(c2ccc(Cl)c(F)c2)CC1 [Compound I-113] |  | 0.034 µM |  | 0.034 µM |  |
| O=C(Nc1ccc2[nH]c(=O)oc2c1)C(=O)N1CCCN(c2ccc(C(F)(F)F)c(F)c2)CC1 [Compound I-114] |  |  | ≤ 0.1 µM |  | ≤ 0.1 µM |
| O=C(CC1(O)CCN(c2ccc(C(F)(F)F)c(F)c2)CC1)Nc1ccc2[nH]c(=O)oc2c1 [Compound I-116] |  | 0.049 µM |  | 0.049 µM |  |
| C[C@@H]1CN(C(=O)C(=O)Nc2ccc3[nH]c(=O)oc3c2)CCN1c1ccc(Cl)cc1 [Compound I-177] |  |  | ≤ 0.1 µM | 0.059 µM |  |
| C[C@@H]1CN(c2ccc(Cl)cc2)CCN1C(=O)C(=O)Nc1ccc2[nH]c(=O)oc2c1 [Compound I-178] |  |  | ≤ 0.1 µM | 0.029 µM |  |
| O=C(CC1(O)CCN(c2ccc(Cl)c(Cl)c2)CC1)Nc1ccc2[nH]c(=O)oc2c1 [Compound I-187] |  | 0.014 µM |  | 0.054 µM |  |
| CC(=O)c1ccc(N2CCN(C(=O)C(=O)Nc3ccc4[nH]c(=O)oc4c3)CC2)cc1 [Compound I-203] | 264 to 266 °C (dec.) |  |  |  |  |
| O=C(NCCC1CCN(c2ccc(OC(F)(F)F)cc2)CC1)c1ccc(=O)[nH]c1 [Compound I-230] |  |  | ≤ 0.1 µM |  | ≤ 0.1 µM |
| O=C(Nc1ccc2[nH]c(=O)oc2c1)C(=O)N1CCN(c2ccc(OC(F)F)cc2)CC1 [Compound I-233] |  |  | ≤ 0.1 µM |  | ≤ 0.1 µM |
| COc1ccc(N2CCC(=CC(=O)Nc3ccc4[nH]c(=O)oc4c3)CC2)cc1F [Compound I-238] |  |  | ≤ 0.1 µM |  | ≤ 0.1 µM |
| COc1cc(N2CCN(C(=O)C(=O)Nc3ccc4[nH]c(=O)oc4c3)CC2)ccc1Cl [Compound I-250] | 201 to 203 °C |  |  |  |  |
| COc1cc(N2CCN(C(=O)C(=O)Nc3ccc4[nH]c(=O)oc4c3)C[C@H]2C)ccc1Cl [Compound I-251] | 122 to 124 °C |  |  |  |  |
| CCOc1ccc(N2CCN(C(=O)C(=O)Nc3ccc4[nH]c(=O)oc4c3)CC2)cc1F [Compound I-253] | 226 to 228 °C |  |  |  |  |

Continued, values first:

| melting point | IC50 [1, 2] | IC50 [1, 3] | IC50 (NR1/NR2B receptor; [4]) | IC50 (NR1/NR2B receptor; [5]) | SMILES |
| --- | --- | --- | --- | --- | --- |
| 218 to 219 °C | 0.037 µM |  |  |  | O=C(CC1(O)CCN(c2ccc(C(F)(F)F)cn2)CC1)Nc1ccc2[nH]c(=O)oc2c1 [Compound I-61] |
| 229 to 230 °C | 0.092 µM |  |  |  | O=C(CC1CCN(c2ccc(C(F)(F)F)cn2)CC1)Nc1ccc2[nH]c(=O)oc2c1 [Compound I-62] |
| 222 to 223 °C |  |  |  |  | O=C(CC1(O)CCN(c2ccc(C(F)(F)F)cc2)CC1)Nc1ccc2c(c1)CCC(=O)N2 [Compound I-64] |
| 199 to 200 °C |  |  |  |  | O=C(NCCC1(O)CCN(c2ccc(C(F)(F)F)cn2)CC1)c1cn[nH]c1 [Compound I-67] |
|  |  | ≤ 0.1 µM | 0.026 µM |  | O=C(Nc1ccc2[nH]c(=O)sc2c1)C(=O)N1CCN(c2ccc(Cl)cc2)CC1 [Compound I-90] |
|  | 0.01 µM |  | 0.074 µM |  | O=C(Nc1ccc2[nH]c(=O)oc2c1)C(=O)N1CCCN(c2ccc(Cl)cc2)CC1 [Compound I-100] |
|  | 0.01 µM |  | 0.045 µM |  | O=C(Nc1cnc2[nH]c(=O)oc2c1)C(=O)N1CCN(c2ccc(Cl)c(Cl)c2)CC1 [Compound I-105] |
|  | 0.001 µM |  | 0.012 µM |  | O=C(Nc1ccc2[nH]c(=O)oc2c1)C(=O)N1CCN(c2ccc(Cl)c(F)c2)CC1 [Compound I-109] |
|  | 0.004 µM |  | 0.044 µM |  | O=C(Nc1ccc2[nH]c(=O)oc2c1)C(=O)N1CCCN(c2ccc(Cl)c(F)c2)CC1 [Compound I-154] |
|  | 0.013 µM |  | 0.062 µM |  | O=C(C=C1CCN(c2ccc(C(F)(F)F)c(F)c2)CC1)Nc1ccc2[nH]c(=O)oc2c1 [Compound I-180] |
|  | 0.011 µM |  | 0.041 µM |  | O=C(C=C1CCN(c2ccc(Cl)c(Cl)c2)CC1)Nc1ccc2[nH]c(=O)oc2c1 [Compound I-184] |
|  | 0.015 µM |  | 0.023 µM |  | O=C(NCCC1CCN(c2ccc(Cl)c(Cl)c2)CC1)c1ccc(=O)[nH]c1 [Compound I-196] |
|  |  | ≤ 0.1 µM |  | ≤ 0.1 µM | C[C@@H]1CN(C(=O)C(=O)Nc2ccc3[nH]c(=O)oc3c2)CCN1c1ccc(Cl)c(F)c1 [Compound I-207] |
|  |  | ≤ 0.1 µM |  | ≤ 0.1 µM | O=C(Nc1ccc2[nH]c(=O)oc2c1)C(=O)N1CCN(c2ccc(OC(F)(F)F)cc2)CC1 [Compound I-211] |
|  |  | ≤ 0.1 µM |  | ≤ 0.1 µM | C[C@@H]1CN(c2ccc(F)c(Cl)c2)CCN1C(=O)C(=O)Nc1ccc2[nH]c(=O)oc2c1 [Compound I-221] |
|  |  | ≤ 0.1 µM |  | ≤ 0.1 µM | O=C(C=C1CCN(c2ccc(OC(F)(F)F)cc2)CC1)Nc1ccc2[nH]c(=O)oc2c1 [Compound I-225] |
|  |  | ≤ 0.1 µM |  | ≤ 0.1 µM | C[C@@H]1CN(c2ccc(C(F)(F)F)cn2)CCN1C(=O)C(=O)Nc1ccc2[nH]c(=O)oc2c1 [Compound I-227] |
|  |  | ≤ 0.1 µM |  | ≤ 0.1 µM | C[C@@H]1CN(C(=O)C(=O)Nc2ccc3[nH]c(=O)oc3c2)CCN1c1ccc(Cl)cn1 [Compound I-228] |
|  |  | ≤ 0.1 µM |  | ≤ 0.1 µM | O=C(C=C1CCN(c2ccc(OC(F)F)cc2)CC1)Nc1ccc2[nH]c(=O)oc2c1 [Compound I-237] |
| 118 to 120 °C |  |  |  |  | COc1ccc(N2CCN(C(=O)C(=O)Nc3ccc4[nH]c(=O)oc4c3)C[C@H]2C)cc1Cl [Compound I-248] |
